Values joined by “and” are separate entries in the source; they are usually repeats but may differ in a detail not shown here. Equal entries are not always repeated. Inconclusive results and toxic doses are left out. How the source made its calls: active means survival T/C of 150% or more; inactive means T/C below 125% in these data.
System: P388 leukemia ip, CD2F1 mice, survival T/C
Assay: NCI In Vivo Anticancer Drug Screen. Data for tumor model P388 Leukemia (intraperitoneal) in CD2F1 (CDF1) mice
Conditions: endpoint: median survival time, higher = longer survival
How it was run: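 Mice carrying the transplanted tumor received test compound or vehicle. Survival was recorded in each group, and the value is the treated-group measurement divided by that of the vehicle-treated control group.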

[1] = dose: 12.5 mg/kg/injection, schedule: Q01DX009 (ip), vehicle: saline with Tween-80
[2] = dose: 25.0 mg/kg/injection, schedule: Q01DX009 (ip), vehicle: saline with Tween-80
[3] = dose: 50.0 mg/kg/injection, schedule: Q01DX009 (ip), vehicle: saline with Tween-80
[4] = dose: 50.0 mg/kg/injection, schedule: Q01DX005 (ip), vehicle: saline with Tween-80
[5] = dose: 100.0 mg/kg/injection, schedule: Q01DX005 (ip), vehicle: saline with Tween-80
[6] = dose: 200.0 mg/kg/injection, schedule: Q01DX005 (ip), vehicle: saline with Tween-80
[7] = dose: 100.0 mg/kg/injection, schedule: Q04DX003 (ip), vehicle: saline with Tween-80
[8] = dose: 200.0 mg/kg/injection, schedule: Q04DX003 (ip), vehicle: saline with Tween-80
[9] = dose: 400.0 mg/kg/injection, schedule: Q04DX003 (ip), vehicle: saline with Tween-80
[10] = dose: 200.0 mg/kg/injection, schedule: Q01DX009 (ip), vehicle: saline with Tween-80
[11] = dose: 50.0 mg/kg/injection, schedule: Q01DX005 (ip), vehicle: Klucel (hydroxypropylcellulose) (HPC)
[12] = dose: 100.0 mg/kg/injection, schedule: Q01DX005 (ip), vehicle: Klucel (hydroxypropylcellulose) (HPC)
[13] = dose: 200.0 mg/kg/injection, schedule: Q01DX005 (ip), vehicle: Klucel (hydroxypropylcellulose) (HPC)
[14] = dose: 100.0 mg/kg/injection, schedule: Q01DX009 (ip), vehicle: saline with Tween-80

Measured: T/C

COc1c(O)cc2c(c1O)C1OC(CO)C(O)C(O)C1OC2=O (stereo not given)
inactive: dose: 12.75 mg/kg/injection, schedule: Q01DX005 (ip), vehicle: Klucel (hydroxypropylcellulose) (HPC) 100 % of control | dose: 25.5 mg/kg/injection, schedule: Q01DX005 (ip), vehicle: Klucel (hydroxypropylcellulose) (HPC) 98 % of control | dose: 51.0 mg/kg/injection, schedule: Q01DX005 (ip), vehicle: Klucel (hydroxypropylcellulose) (HPC) 97 % of control | dose: 102.0 mg/kg/injection, schedule: Q01DX005 (ip), vehicle: Klucel (hydroxypropylcellulose) (HPC) 100 % of control

CC12CCCCC1=Nc1ccc3ccccc3c12 (stereo not given)
inactive: [1] 92 % of control | [2] 90 % of control | [3] 92 % of control

COc1cc(Cc2nc3n(O)cc(-c4ccccc4)nc-3c(=N)n2)cc(OC)c1OC
inactive: [1] 104 % of control | [2] 108 % of control | [3] 104 % of control

CCN(CC)C(=O)N1CCN(C(=O)c2cc(Nc3ccnc4cc(Cl)ccc34)ccc2O)CC1
inactive: dose: 100.0 mg/kg/injection, schedule: Q04DX002 (ip), vehicle: saline with Tween-80 100 % of control | dose: 200.0 mg/kg/injection, schedule: Q04DX002 (ip), vehicle: saline with Tween-80 100 % of control | dose: 400.0 mg/kg/injection, schedule: Q04DX002 (ip), vehicle: saline with Tween-80 89 % of control

CCOC(=O)C(C)(C(=O)c1ccccc1)C(=O)C(C)(C)C (stereo not given)
inactive: dose: 75.0 mg/kg/injection, schedule: Q01DX009 (ip), vehicle: saline with Tween-80 107 % of control | dose: 150.0 mg/kg/injection, schedule: Q01DX009 (ip), vehicle: saline with Tween-80 103 % of control | dose: 300.0 mg/kg/injection, schedule: Q01DX009 (ip), vehicle: saline with Tween-80 115 % of control

S=C(NCCN1CCN2Cc3[nH]c4ccccc4c3CC2C1)Nc1ccccc1 (stereo not given)
inactive: [4] 94 % of control | [5] 91 % of control | [6] 102 % of control

Cc1[nH]nc2c(NCc3ccco3)ncnc12
inactive: dose: 25.0 mg/kg/injection, schedule: Q04DX003 (ip), vehicle: saline 98 % of control | dose: 50.0 mg/kg/injection, schedule: Q04DX003 (ip), vehicle: saline 104 % of control | dose: 100.0 mg/kg/injection, schedule: Q04DX003 (ip), vehicle: saline 101 % of control | dose: 200.0 mg/kg/injection, schedule: Q04DX003 (ip), vehicle: saline 95 % of control

c1ccc2c(c1)SCC1COCOC21 (stereo not given)
inactive: [7] 100 % of control | [8] 103 % of control | [9] 98 % of control

COC(=O)C12OCC34C(CC5C(C)C6=CC(=O)OC6=CC5(C)C3C(O)C1O)OC(=O)C(OC(C)=O)C24 (stereo not given)
inactive: dose: 18.37 mg/kg/injection, schedule: Q01DX005 (ip), vehicle: Klucel (hydroxypropylcellulose) (HPC) 106 % of control | dose: 36.75 mg/kg/injection, schedule: Q01DX005 (ip), vehicle: Klucel (hydroxypropylcellulose) (HPC) 115 % of control

S=c1[nH]ccn1-c1ccccc1Cl
inactive: dose: 60.0 mg/kg/injection, schedule: Q01DX005 (ip), vehicle: Klucel (hydroxypropylcellulose) (HPC) 101 % of control | dose: 120.0 mg/kg/injection, schedule: Q01DX005 (ip), vehicle: Klucel (hydroxypropylcellulose) (HPC) 106 % of control | dose: 240.0 mg/kg/injection, schedule: Q01DX005 (ip), vehicle: Klucel (hydroxypropylcellulose) (HPC) 109 % of control

S=c1n(-c2ccc(Cl)cc2)c2nc3ccccc3nc(/c2=N\Nc2ccccc2)n1-c1ccc(Br)cc1
inactive: [4] 92 % of control | [5] 105 % of control | [6] 105 % of control

CCC(=O)Nc1ncc([N+](=O)[O-])s1
inactive: [2] 94 % of control | [3] 86 % of control | [10] 86 % of control

Cc1c2cnccc2c(C)c2c1c1ccccc1n2Cc1ccccc1
inactive: dose: 6.25 mg/kg/injection, schedule: Q04DX003 (ip), vehicle: distilled water + Tween-80 97 % of control | dose: 12.5 mg/kg/injection, schedule: Q04DX003 (ip), vehicle: distilled water + Tween-80 95 % of control | dose: 25.0 mg/kg/injection, schedule: Q04DX003 (ip), vehicle: distilled water + Tween-80 95 % of control | dose: 50.0 mg/kg/injection, schedule: Q04DX003 (ip), vehicle: distilled water + Tween-80 95 % of control | dose: 100.0 mg/kg/injection, schedule: Q04DX003 (ip), vehicle: distilled water + Tween-80 99 % of control | dose: 200.0 mg/kg/injection, schedule: Q04DX003 (ip), vehicle: distilled water + Tween-80 94 % of control

CCOC(=O)C(CC(C(=O)O)c1ccccc1)c1ccccc1 (stereo not given)
inactive: [11] 100 % of control | [12] 96 % of control | [13] 96 % of control

O=C(CC(=O)c1ccc(Cl)s1)C(=O)Nc1cccc(C(F)(F)F)c1
inactive: dose: 60.0 mg/kg/injection, schedule: Q01DX005 (ip), vehicle: saline with Tween-80 105 % of control | dose: 120.0 mg/kg/injection, schedule: Q01DX005 (ip), vehicle: saline with Tween-80 102 % of control | dose: 240.0 mg/kg/injection, schedule: Q01DX005 (ip), vehicle: saline with Tween-80 106 % of control

C[N+]1(C)CCc2c([nH]c3ccccc23)C1
inactive: dose: 100.0 mg/kg/injection, schedule: Q01DX001 (ip), vehicle: suspension in saline 95 % of control | dose: 200.0 mg/kg/injection, schedule: Q01DX001 (ip), vehicle: suspension in saline 107 % of control

Cc1c/c(=N\O)c2c(=O)c([N+](=O)[O-])coc2n1O
inactive: dose: 50.0 mg/kg/injection, schedule: Q01DX009 (ip), vehicle: Klucel (hydroxypropylcellulose) (HPC) 100 % of control | dose: 100.0 mg/kg/injection, schedule: Q01DX009 (ip), vehicle: Klucel (hydroxypropylcellulose) (HPC) 100 % of control | dose: 200.0 mg/kg/injection, schedule: Q01DX009 (ip), vehicle: Klucel (hydroxypropylcellulose) (HPC) 97 % of control

CCN(CC)CCOC(=O)/C=C\c1cccc2c(=O)cc(-c3ccccc3)oc12
inactive: dose: 50.0 mg/kg/injection, schedule: Q01DX009 (ip), vehicle: saline 100 % of control | dose: 100.0 mg/kg/injection, schedule: Q01DX009 (ip), vehicle: saline 101 % of control | dose: 200.0 mg/kg/injection, schedule: Q01DX009 (ip), vehicle: saline 117 % of control

CC1=NN(c2ccccc2)[As]2ON=C(c3ccc(Cl)cc3)C12 (stereo not given)
inactive: [11] 102 % of control | [12] 103 % of control | [13] 108 % of control

Cc1nccc2cccc(CNC(C)C)c12
inactive: dose: 100.0 mg/kg/injection, schedule: Q01DX001 (ip), vehicle: saline 103 % of control | dose: 200.0 mg/kg/injection, schedule: Q01DX001 (ip), vehicle: saline 100 % of control

Cn1c(-c2ccc(Cl)cc2)cc2cc(CN3C(=O)c4ccccc4C3=O)ccc21
inactive: dose: 25.0 mg/kg/injection, schedule: Q04DX003 (ip), vehicle: Klucel (hydroxypropylcellulose) (HPC) 95 % of control | dose: 50.0 mg/kg/injection, schedule: Q04DX003 (ip), vehicle: Klucel (hydroxypropylcellulose) (HPC) 96 % of control | dose: 100.0 mg/kg/injection, schedule: Q04DX003 (ip), vehicle: Klucel (hydroxypropylcellulose) (HPC) 87 % of control and 88 % of control | dose: 400.0 mg/kg/injection, schedule: Q04DX003 (ip), vehicle: Klucel (hydroxypropylcellulose) (HPC) 87 % of control

CCCCn1c(=O)cc[nH]c1=O
inactive: [7] 100 % of control | [8] 100 % of control | [9] 99 % of control

Fc1ccc(N2C(Cl)(Cl)C23c2ccccc2-c2ccccc23)cc1
inactive: [1] 104 % of control | [2] 103 % of control | [3] 94 % of control | [14] 103 % of control | [10] 112 % of control

C=Cc1cncc2c1CCOC2=O
inactive: dose: 3.75 mg/kg/injection, schedule: Q01DX005 (ip), vehicle: Klucel (hydroxypropylcellulose) (HPC) 86 % of control | dose: 7.5 mg/kg/injection, schedule: Q01DX005 (ip), vehicle: Klucel (hydroxypropylcellulose) (HPC) 93 % of control | dose: 30.0 mg/kg/injection, schedule: Q01DX005 (ip), vehicle: Klucel (hydroxypropylcellulose) (HPC) 86 % of control

COc1ccc(C(=O)Cc2cc(OC)c(OC)cc2Br)cc1OC
inactive: dose: 100.0 mg/kg/injection, schedule: Q01DX001 (ip), vehicle: Klucel (hydroxypropylcellulose) (HPC) 93 % of control | dose: 200.0 mg/kg/injection, schedule: Q01DX001 (ip), vehicle: Klucel (hydroxypropylcellulose) (HPC) 101 % of control | [6] 86 % of control | dose: 400.0 mg/kg/injection, schedule: Q01DX001 (ip), vehicle: Klucel (hydroxypropylcellulose) (HPC) 99 % of control

CCOC(=O)Cn1c(=S)sc2ccccc21
inactive: [2] 91 % of control | [3] 89 % of control | [14] 99 % of control | [10] 91 % of control
